Patent US20120178769A1, “NOVEL COMPOUNDS FOR INHIBITING EEF-2 KINASE ACTIVITY” (The University of Medicine and Dentistry, priority 2009, published 2012)

Assays:
eEF2K = eEF2K (Homo sapiens, UniProt O00418); conditions: known selenazine inhibitors; cited from earlier work
glioma cell lines = conditions: by inhibiting eEF2-K; Parmer et al, 1997; cited from earlier work
eEF2 kinase = eEF2 kinase (Homo sapiens, UniProt O00418); test: eEF2 kinase activity assay with purified eEF2 (33P-ATP, SDS-PAGE, autoradiography); assay type: biochemical; conditions: purified eEF2, FIG. 1
Protocol: Recombinant eEF2 kinase (0.5 μg) was incubated with purified rabbit reticulocyte eEF2 (0.5 μg) in a reaction mixture consisting of 50 mM Hepes-KOH pH 6.6, 10 mM magnesium acetate, 5 mM DTT, 100 μM CaCl2, 0.5 μg calmodulin, 50 μM ATP, and 0.2 μCi [γ-^33P]-ATP (3000 Ci/mmol). The reactions were run at 30° C. for 15 minutes, and were terminated by incubation in an ice/water bath and addition of Laemmli sample buffer. Samples were analyzed by SDS-PAGE and autoradiography.

eEF2K, sequence (O00418 whole entry): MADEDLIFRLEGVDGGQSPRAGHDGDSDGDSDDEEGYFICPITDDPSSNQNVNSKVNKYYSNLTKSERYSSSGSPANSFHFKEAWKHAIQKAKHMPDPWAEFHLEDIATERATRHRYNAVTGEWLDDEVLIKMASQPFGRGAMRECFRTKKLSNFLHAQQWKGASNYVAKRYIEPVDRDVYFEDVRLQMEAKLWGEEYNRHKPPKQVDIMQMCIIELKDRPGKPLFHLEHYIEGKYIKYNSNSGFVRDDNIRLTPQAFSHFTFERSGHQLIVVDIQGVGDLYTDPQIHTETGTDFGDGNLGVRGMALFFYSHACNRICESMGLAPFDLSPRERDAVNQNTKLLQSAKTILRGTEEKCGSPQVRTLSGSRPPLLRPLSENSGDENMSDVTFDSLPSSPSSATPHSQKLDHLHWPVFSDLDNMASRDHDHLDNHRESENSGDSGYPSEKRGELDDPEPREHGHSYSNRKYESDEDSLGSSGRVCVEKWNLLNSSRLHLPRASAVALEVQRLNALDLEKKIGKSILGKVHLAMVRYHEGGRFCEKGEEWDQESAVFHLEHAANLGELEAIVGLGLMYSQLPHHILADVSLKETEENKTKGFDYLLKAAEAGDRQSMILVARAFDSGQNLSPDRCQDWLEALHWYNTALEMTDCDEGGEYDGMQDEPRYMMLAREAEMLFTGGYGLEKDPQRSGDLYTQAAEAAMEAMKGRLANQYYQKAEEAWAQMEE

Compound	inhibition of eEF2K phosphorylative activity (eEF2K)	also measured
CCCCCC1=NC(O)(CC)CC[Se]1 (centres unmarked) [PS2]	known to inhibit eEF2K phosphorylative activity	–
CC(=O)c1c(O)c(C)c(O)c(Cc2c(O)c3c(c(C(=O)/C=C/c4ccccc4)c2O)OC(C)(C)C=C3)c1O [Rottlerin]	–	inhibition of growth of glioma cell lines (glioma cell lines): inhibit growth of glioma cell lines
CCC1(O)CC[Se]C(c2ccc(C)cc2)=N1 (centres unmarked) [TS2]	known to inhibit eEF2K phosphorylative activity	–
Cc1ccc(C2=NC(C)(O)CC(C(C)C)[Se]2)cc1 (centres unmarked) [TS4]	known to inhibit eEF2K phosphorylative activity	–
CCCCCCCCCCCCC/C=C/[C@@H](O)[C@@H](N)COP(=O)(O)O [sphingosine-1-phosphate]	–	inhibition of eEF2 kinase in vitro (eEF2 kinase): inhibit eEF2 kinase in vitro
